Data published in patent publication US9809808B2, “Antimicrobial agents” (KATHOLIEKE UNIVERSITEIT LEUVEN K.U. LEUVEN R&D, priority 2008, dated 2017).
Where two headings read alike, the source gives them in different places.

Key:
P. aeruginosa Br667 [1] = type: cell-based, Pseudomonas aeruginosa
[2] = system: Salmonella typhimurium LT2; type: cell-based; settings: 30 minutes
[3] = system: Pseudomonas aeruginosa PAO1p cells; assay: Effect of different EDTA and endolysin concentrations on antibacterial activity of OBPgpLYS and PKOBPgpLYS; type: cell-based
Description: To determine the influence of EDTA on the antibacterial activity of unmodified and modified endolysins the antibacterial activity of the unmodified OBPgpLYS endolysin (SEQ ID NO: 7) and the PKOBPgpLYS endolysin (SEQ ID NO: 61) was tested on Pseudomonas aeruginosa PAO1p cells ([…] et al. J Clin Microbiol., 41(3):1192-1202 (2003)) using different concentrations of EDTA and endolysins. Exponential growing bacterial cells (OD600 nm of 0.6) were 100-fold diluted to a final density of about 10^6/ml and incubated for 30 minutes at room temperature without shaking with unmodified endolysin OBPgpLYS (SEQ ID NO: 7) and modified endolysin PKOBPgpLYS (SEQ ID NO: 61). […] Thereby, the following different EDTA concentrations were used: 0 mM, 0.05 mM, 0.5 mM and 10 mM. […] After incubation cell suspensions were diluted three times (respectively 10^5-10^4-10^3 cells/ml) and 100 μl of each dilution was plated out on LB-medium. […] All samples were replicated in threefold. Averages+/-standard deviations are represented.

[4] = system: Burkholderia pseudomallei; type: cell-based; settings: 30 minutes
P. putida G1 [5] = type: cell-based, Pseudomonas putida
Escherichia coli WK6 [6] = type: cell-based
P. aeruginosa Br667 [7] = assay: Antibacterial activity of PSP3gp10 and PKPSP3gp10 with and without EDTA (30 minutes, colony count); type: cell-based, Pseudomonas aeruginosa
P. putida G1 [8] = assay: Antibacterial activity of P2gp09 and PKP2gp09 with and without EDTA (30 minutes, colony count); type: cell-based, Pseudomonas putida; settings: 0.5 mM EDTA, no endolysin, 30 minutes
Escherichia coli WK6 [9] = assay: as above; type: cell-based; settings: 0.5 mM EDTA, no endolysin, 30 minutes
Description: To determine the anti-Gram-negative spectrum of the PK2gp09 endolysin according to SEQ ID NO: 57, a combination of 1.315 μM PK2gp09 endolysin and 0,5 mM EDTA was tested on the clinical P. aeruginosa strains PAO1p and Br667 and on Escherichia coli WK6 (see Table 9). Exponential growing bacterial cells (OD600 nm of 0.6) were 100-fold diluted to a final density of about 10^6/ml of each strain was incubated for 30 minutes at room temperature without shaking with unmodified endolysin P2gp09 (SEQ ID NO: 9) and modified endolysin PKP2gp09 (SEQ ID NO: 57) each in combination without and with 0.5 mM EDTA. […] As a control each strain was also incubated for 30 minutes with 0.5 mM EDTA (in same buffer as outlined above) but no endolysin. After incubation cell suspensions were diluted three times (respectively 10^5-10^4-10^3 cells/ml) and 100 μl of each dilution was plated out on LB-medium.

Escherichia coli WK6 [10] = assay: Antibacterial activity of PSP3gp10 and PKPSP3gp10 with and without EDTA (30 minutes, colony count); type: cell-based
Description: (§1) To determine the anti-Gram-negative spectrum of the PKPSP3gp10 endolysin according to SEQ ID NO: 53, a combination of 1.315 μM PKPSP3gp10 endolysin and 0.5 mM EDTA was tested on the clinical P. aeruginosa strains PAO1p and Br667, Escherichia coli WK6, and Salmonella typhimurium (see Table 5). Exponential growing bacterial cells (OD600 nm of 0.6) were 100-fold diluted to a final density of about 10^6/ml of each strain were incubated for 30 minutes at room temperature without shaking with unmodified endolysin […] (SEQ ID NO: 8) and modified endolysin PKPSP3gp10 (SEQ ID NO: 53) each in combination without and with 0.5 mM EDTA. […] As a control each strain was also incubated for 30 minutes with 0.5 mM EDTA (in same buffer as outlined above) but no endolysin.
(§2) After incubation cell suspensions were diluted three times (respectively 10^5-10^4-10^3 cells/ml) and 100 μl of each dilution was plated out on LB-medium.

[11] = system: Salmonella typhimurium LT2; assay: as above; type: cell-based
Description: as §1, §2

P. aeruginosa Br667 [12] = assay: Antibacterial activity of P2gp09 and PKP2gp09 with and without EDTA (30 minutes, colony count); type: cell-based, Pseudomonas aeruginosa; settings: 0.5 mM EDTA, no endolysin, 30 minutes
[13] = 1.313 μM endolysin, no EDTA, 30 minutes
[14] = 1.313 μM endolysin + 0.5 mM EDTA
[15] = 0.5 mM EDTA, no endolysin, 30 minutes
[16] = 1.315 μM endolysin + 0.5 mM EDTA

OBPgpLYS: SEQ ID NO: 7: unmodified modular endolysin of 328 amino acid residues originating from Pseudomonas putida phage OBP
relative inactivation in logarithmic units (log10N0/Ni) (P. aeruginosa Br667 [1]): 3.144 +/− 0.223 logarithmic units | relative inactivation in logarithmic units (log10N0/Ni) (P. aeruginosa Br667 [1]; [13]): 1.082 +/− 0.083 logarithmic units | relative inactivation in logarithmic units (log10N0/Ni) [2, 14]: 0.774 +/− 0.052 logarithmic units | relative inactivation in logarithmic units (log10N0/Ni) ([2]; 1.313 μM endolysin, no EDTA): 0.076 +/− 0.011 logarithmic units | relative inactivation in logarithmic units (log10N0/Ni) ([3]; 0.013 μM endolysin, 0 mM EDTA-Na2, 30 minutes): 0.956 +/− 0.110 log units | relative inactivation in logarithmic units (log10N0/Ni) ([3]; 0.013 μM endolysin, 0.5 mM EDTA-Na2, 30 minutes): 4.626 +/− 0.287 log units | relative inactivation in logarithmic units (log10N0/Ni) ([3]; 0.131 μM endolysin, 0 mM EDTA-Na2, 30 minutes): 2.158 +/− 0.027 log units | relative inactivation in logarithmic units (log10N0/Ni) ([3]; 0.131 μM endolysin, 0.5 mM EDTA-Na2, 30 minutes): 4.599 +/− 0.275 log units | relative inactivation in logarithmic units (log10N0/Ni) ([3]; 1.315 μM endolysin, 0.05 mM EDTA-Na2, 30 minutes): 2.762 +/− 0.091 log units | relative inactivation in logarithmic units (log10N0/Ni) ([3]; 1.315 μM endolysin, 0.5 mM EDTA-Na2, 30 minutes): 4.357 +/− 1.857 log units | relative inactivation in logarithmic units (log10N0/Ni) ([3]; 1.315 μM endolysin, 10 mM EDTA-Na2, 30 minutes): 4.888 +/− 0.275 log units | relative inactivation in logarithmic units (log10N0/Ni) [4, 14]: 4.08 +/− 0.301 logarithmic units | relative inactivation in logarithmic units (log10N0/Ni) ([4]; 1.313 μM endolysin, no EDTA): 0.997 +/− 0.131 logarithmic units | relative inactivation in logarithmic units (log10N0/Ni) (P. putida G1 [5]): 4.891 +/− 0.000 logarithmic units | relative inactivation in logarithmic units (log10N0/Ni) (P. putida G1 [5]; [13]): 0.141 +/− 0.027 logarithmic units | relative inactivation in logarithmic units (log10N0/Ni) (Escherichia coli WK6 [6]): 1.179 +/− 0.200 logarithmic units | relative inactivation in logarithmic units (log10N0/Ni) (Escherichia coli WK6 [6]; [13]): 0.681 +/− 0.032 logarithmic units

O=C([O-])CN(CCN(CC(=O)[O-])CC(=O)O)CC(=O)O.[Na+].[Na+] [EDTA, reference compound]
relative inactivation in logarithmic units (log10N0/Ni) (P. aeruginosa Br667 [1]; [15]): 0.031 +/− 0.023 logarithmic units | relative inactivation in logarithmic units (log10N0/Ni) (P. aeruginosa Br667 [7]; 0.5 mM EDTA, no endolysin): 0.223 +/− 0.038 logarithmic units | relative inactivation in logarithmic units (log10N0/Ni) ([2]; 0.5 mM EDTA, no endolysin): 0.054 +/− 0.048 logarithmic units | relative inactivation in logarithmic units (log10N0/Ni) ([3]; no endolysin, 0.05 mM EDTA-Na2, 30 minutes): 0.028 +/− 0.008 log units | relative inactivation in logarithmic units (log10N0/Ni) ([3]; no endolysin, 0.5 mM EDTA-Na2, 30 minutes): 0.130 +/− 0.023 log units | relative inactivation in logarithmic units (log10N0/Ni) ([3]; no endolysin, 10 mM EDTA-Na2, 30 minutes): 1.827 +/− 0.052 log units | relative inactivation in logarithmic units (log10N0/Ni) (P. putida G1 [8]): 0.072 logarithmic units | relative inactivation in logarithmic units (log10N0/Ni) (Escherichia coli WK6 [9]): 0.153 logarithmic units | relative inactivation in logarithmic units (log10N0/Ni) (Escherichia coli WK6 [10]; 0.5 mM EDTA, no endolysin): 0.393 +/− 0.035 logarithmic units | relative inactivation in logarithmic units (log10N0/Ni) ([11]; 0.5 mM EDTA, no endolysin): 0.104 +/− 0.049 logarithmic units | relative inactivation in logarithmic units (log10N0/Ni) (P. putida G1 [5]; [15]): 0.412 +/− 0.055 logarithmic units | relative inactivation in logarithmic units (log10N0/Ni) (P. aeruginosa Br667 [12]): 0.003 logarithmic units | relative inactivation in logarithmic units (log10N0/Ni) (Escherichia coli WK6 [6]; [15]): 0.592 +/− 0.113 logarithmic units

B1: PKPSP3gp10: SEQ ID NO: 53: PSP3gp10 (SEQ ID NO: 8) with N-terminal peptide stretch KRKKRKKRK (SEQ ID NO: 11) (protein)
chain: MGSKRKKRKKRKPVINTHQNIAAFLDMLAYSEGTANHPLTKNRGYDVIVTGFDGSPEIFTDYSDHPFAHGRPPKVFNRRGEKSTASGRYQQLYIFWPHYKKQLALPDFSPLSQDKLAIQLIRERGAIDDIRAGRIERAVSRCRNIWASLPGAGYGQREHSLEKLVTVWRTAGGVMA
modifications: PKPSP3gp10
relative inactivation in logarithmic units (log10N0/Ni) (P. aeruginosa Br667 [7]; [16]): 0.891 +/− 0.118 logarithmic units | relative inactivation in logarithmic units (log10N0/Ni) (P. aeruginosa Br667 [7]; 1.315 μM endolysin, no EDTA): 0.353 +/− 0.086 logarithmic units | relative inactivation in logarithmic units (log10N0/Ni) (Escherichia coli WK6 [10]; [16]): 0.584 +/− 0.024 logarithmic units | relative inactivation in logarithmic units (log10N0/Ni) (Escherichia coli WK6 [10]; 1.315 μM endolysin, no EDTA): 0.205 +/− 0.088 logarithmic units | relative inactivation in logarithmic units (log10N0/Ni) [11, 16]: 0.850 +/− 0.032 logarithmic units | relative inactivation in logarithmic units (log10N0/Ni) ([11]; 1.315 μM endolysin, no EDTA): 0.327 +/− 0.057 logarithmic units

B2: PSP3gp10: SEQ ID NO: 8: unmodified globular endolysin with 165 amino acid residues originating from Salmonella typhimurium phage PSP3 (protein)
chain: MPVINTHQNIAAFLDMLAYSEGTANHPLTKNRGYDVIVTGFDGSPEIFTDYSDHPFAHGRPPKVFNRRGEKSTASGRYQQLYIFWPHYKKQLALPDFSPLSQDKLAIQLIRERGAIDDIRAGRIERAVSRCRNIWASLPGAGYGQREHSLEKLVTVWRTAGGVMA
modifications: PSP3gp10
relative inactivation in logarithmic units (log10N0/Ni) (P. aeruginosa Br667 [7]; [16]): 0.571 +/− 0.035 logarithmic units | relative inactivation in logarithmic units (log10N0/Ni) (P. aeruginosa Br667 [7]; 1.315 μM endolysin, no EDTA): 0.375 +/− 0.056 logarithmic units | relative inactivation in logarithmic units (log10N0/Ni) (Escherichia coli WK6 [10]; [16]): 0.387 +/− 0.014 logarithmic units | relative inactivation in logarithmic units (log10N0/Ni) (Escherichia coli WK6 [10]; 1.315 μM endolysin, no EDTA): 0.190 +/− 0.029 logarithmic units | relative inactivation in logarithmic units (log10N0/Ni) [11, 16]: 0.690 +/− 0.036 logarithmic units | relative inactivation in logarithmic units (log10N0/Ni) ([11]; 1.315 μM endolysin, no EDTA): 0.283 +/− 0.038 logarithmic units
